Source: patent US4416884A, “Piperazinylbenzoheterocyclic compounds” (Otsuka Pharmaceutical Co., Ltd., priority 1978, dated 1983)
Values after ≈ are worked out from the molar mass of the structure shown. Structures can show the parent of a compound that is named as a salt. Where two headings read alike, the source gives them in different places.

How the values were obtained:
Test in all cases: antimicrobial activity, serial dilution method on agar plate
Type in all cases: cell-based
[1] = system: Escherichia Coli NIHJ JC-2 (IFO 12734); conditions: for MIC: Escherichia coli, read-out: Minimum Inhibitory Concentration
Description: (§1) The antimicrobial activity of the following test compounds on various test organisms listed below was determined by the serial dilution method on agar plate (Heart Infusion agar produced by Difco Co.) (see CHEMOTHERAPY 22, pp. 1126-1128 (1974)), and the minimum inhibitory concentrations (mcg/ml) obtained are shown in Table 1 below.
(§2) A sample of each test organism was prepared so that the population of the organism was 1×10^8 cells/ml (O.D. 660 mμ=0.07 to 0.16) and 1×10^6 cells/ml (which was obtained by diluting the above 1×10^8 cells/ml preparation).

Klebsiella pneumoniae = system: Klebsiella pneumoniae
Description: as §1, §2

Proteus rettgeri NIH 96 = conditions: Providencia rettgeri
Description: as §1, §2

[2] = system: Pseudomonas aeruginosa ATCC 10145
Description: as §1, §2

[3] = system: Pseudomonas aeruginosa E-2
Description: as §1, §2

[4] = system: Pseudomonas aeruginosa NCTC 10490
Description: as §1, §2

[5] = system: Salmonella typhi 0-901 (NCTC 8393); conditions: Salmonella enterica
Description: as §1, §2

[6] = system: Serattia marcescens IFO 12648
Description: as §1, §2

Shigella Sonnei EW 33 = conditions: read-out: Minimum Inhibitory Concentration
Description: as §1, §2

[7] = system: Staphylococcus aureus FDA 209 P
Description: as §1, §2

[8] = system: Streptococcus pyogenes IID S-23
Description: as §1, §2

[9] = inoculum 1 × 10^6 cells/ml, read-out: Minimum Inhibitory Concentration
[10] = inoculum 1 × 10^8 cells/ml, read-out: Minimum Inhibitory Concentration
[11] = NIH96, inoculum 1 × 10^6 cells/ml, read-out: Minimum Inhibitory Concentration
[12] = NIH96, inoculum 1 × 10^8 cells/ml, read-out: Minimum Inhibitory Concentration
[13] = ATCC10145, inoculum 1 × 10^6 cells/ml, read-out: Minimum Inhibitory Concentration
[14] = ATCC10145, inoculum 1 × 10^8 cells/ml, read-out: Minimum Inhibitory Concentration
[15] = E2, inoculum 1 × 10^6 cells/ml, read-out: Minimum Inhibitory Concentration
[16] = E2, inoculum 1 × 10^8 cells/ml, read-out: Minimum Inhibitory Concentration
[17] = NCTC10490, inoculum 1 × 10^6 cells/ml, read-out: Minimum Inhibitory Concentration
[18] = NCTC10490, inoculum 1 × 10^8 cells/ml, read-out: Minimum Inhibitory Concentration
[19] = read-out: Minimum Inhibitory Concentration, inoculum 1 × 10^6 cells/ml
[20] = read-out: Minimum Inhibitory Concentration, inoculum 1 × 10^8 cells/ml
[21] = FDA209, inoculum 1 × 10^6 cells/ml, read-out: Minimum Inhibitory Concentration
[22] = FDA209, inoculum 1 × 10^8 cells/ml, read-out: Minimum Inhibitory Concentration
[23] = IIDS23, inoculum 1 × 10^6 cells/ml, read-out: Minimum Inhibitory Concentration
[24] = IIDS23, inoculum 1 × 10^8 cells/ml, read-out: Minimum Inhibitory Concentration
[25] = NIH96, read-out: Minimum Inhibitory Concentration, inoculum 1 × 10^8 cells/ml
[26] = ATCC10145, read-out: Minimum Inhibitory Concentration, inoculum 1 × 10^8 cells/ml
[27] = E2, read-out: Minimum Inhibitory Concentration, inoculum 1 × 10^8 cells/ml
[28] = NCTC10490, read-out: Minimum Inhibitory Concentration, inoculum 1 × 10^8 cells/ml
[29] = FDA209, read-out: Minimum Inhibitory Concentration, inoculum 1 × 10^8 cells/ml
[30] = IIDS23, read-out: Minimum Inhibitory Concentration, inoculum 1 × 10^8 cells/ml

Compound | MIC ([1]; inoculum 1 × 10^6 cells/ml) [µg/mL] | MIC ([1]; inoculum 1 × 10^8 cells/ml) [µg/mL] | MIC (Klebsiella pneumoniae; [9]) [µg/mL] | MIC (Klebsiella pneumoniae; [10]) [µg/mL] | MIC (Proteus rettgeri NIH 96; [11]) [µg/mL] | MIC (Proteus rettgeri NIH 96; [12]) [µg/mL] | MIC [2, 13] [µg/mL] | MIC [2, 14] [µg/mL] | MIC [3, 15] [µg/mL] | MIC [3, 16] [µg/mL] | MIC [4, 17] [µg/mL] | MIC [4, 18] [µg/mL] | MIC [5, 19] [µg/mL] | MIC [5, 20] [µg/mL] | MIC [6, 9] [µg/mL] | MIC [6, 10] [µg/mL] | MIC (Shigella Sonnei EW 33; inoculum 1 × 10^6 cells/ml) [µg/mL] | MIC (Shigella Sonnei EW 33; inoculum 1 × 10^8 cells/ml) [µg/mL] | MIC [7, 21] [µg/mL] | MIC [7, 22] [µg/mL] | other results
CC1CCc2c(N3CCN(C)CC3)c(Cl)cc3c(=O)c(C(=O)O)cn1c23 (centres unmarked) [Compound U, 8-(4-Methyl-1-piperazinyl)-9-chloro-5-methyl-6,7-dihydro-1-oxo-1H,5H--benzo[ij]-quinolizine-2-carboxylic acid] | 0.2 (≈ 0.532 µM) | 0.2 (≈ 0.532 µM) | 0.2 (≈ 0.532 µM) | 0.2 (≈ 0.532 µM) | 0.4 (≈ 1.06 µM) | 0.4 (≈ 1.06 µM) | 3.1 (≈ 8.25 µM) | 3.1 (≈ 8.25 µM) | 6.3 (≈ 16.8 µM) | 6.3 (≈ 16.8 µM) | 1.6 (≈ 4.26 µM) | 1.6 (≈ 4.26 µM) | ≤ 0.05 | ≤ 0.05 | 0.4 (≈ 1.06 µM) | 0.4 (≈ 1.06 µM) | 0.1 (≈ 0.266 µM) | 0.2 (≈ 0.532 µM) | 0.4 (≈ 1.06 µM) | 0.8 (≈ 2.13 µM) | MIC [8, 23]: 3.1 µg/mL (≈ 8.25 µM); MIC [8, 24]: 3.1 µg/mL (≈ 8.25 µM)
CC1CCc2c(N3CCN(C=O)CC3)c(Cl)cc3c(=O)c(C(=O)O)cn1c23 (centres unmarked) [Compound V, 8-(4-Formyl-1-piperazinyl)-9-chloro-5-methyl-6,7-dihydro-1-oxo-1H,5H--benzo[ij]-quinolizine-2-carboxylic acid] | 0.8 (≈ 2.05 µM) | 0.8 (≈ 2.05 µM) | 0.8 (≈ 2.05 µM) | 0.8 (≈ 2.05 µM) | 0.8 (≈ 2.05 µM) | 0.8 (≈ 2.05 µM) | 12.5 (≈ 32.1 µM) | 12.5 (≈ 32.1 µM) | 6.3 (≈ 16.2 µM) | 12.5 (≈ 32.1 µM) | 1.6 (≈ 4.1 µM) | 3.1 (≈ 7.95 µM) | 0.2 (≈ 0.513 µM) | 0.2 (≈ 0.513 µM) | 3.1 (≈ 7.95 µM) | 3.1 (≈ 7.95 µM) | 0.4 (≈ 1.03 µM) | 0.8 (≈ 2.05 µM) | 0.2 (≈ 0.513 µM) | 0.2 (≈ 0.513 µM) | MIC [8, 23]: 1.6 µg/mL (≈ 4.1 µM); MIC [8, 24]: 3.1 µg/mL (≈ 7.95 µM)
CC1CCc2c(N3CCN(C)CC3)c(F)cc3c(=O)c(C(=O)O)cn1c23 (centres unmarked) [Compound W, 8-(4-Methyl-1-piperazinyl)-9-fluoro-5-methyl-6,7-dihydro-1-oxo-1H,5H--benzo[ij]-quinolizine-2-carboxylic acid] | 0.4 (≈ 1.11 µM) | 0.4 (≈ 1.11 µM) | 0.2 (≈ 0.556 µM) | 0.4 (≈ 1.11 µM) | 0.4 (≈ 1.11 µM) | 0.4 (≈ 1.11 µM) | 1.6 (≈ 4.45 µM) | 3.1 (≈ 8.63 µM) | 3.1 (≈ 8.63 µM) | 6.3 (≈ 17.5 µM) | 1.6 (≈ 4.45 µM) | 1.6 (≈ 4.45 µM) | ≤ 0.05 | 0.1 (≈ 0.278 µM) | 0.4 (≈ 1.11 µM) | 0.4 (≈ 1.11 µM) | 0.2 (≈ 0.556 µM) | 0.2 (≈ 0.556 µM) | 0.4 (≈ 1.11 µM) | 0.4 (≈ 1.11 µM) | MIC [8, 23]: 1.6 µg/mL (≈ 4.45 µM); MIC [8, 24]: 1.6 µg/mL (≈ 4.45 µM)
CC1CCc2c(N3CCNCC3)c(F)cc3c(=O)c(C(=O)O)cn1c23 (centres unmarked) [Compound X, 8-(1-Piperazinyl)-9-fluoro-5-methyl-6,7-dihydro-1-oxo-1H,5H--benzo[ij]quinolizine-2-carboxylic acid hydrobromide] | – | – | – | – | – | – | – | – | – | – | – | – | – | – | – | – | – | 0.2 | – | – | MIC [1]: 0.4 µg/mL; MIC (Klebsiella pneumoniae; [20]): 0.4 µg/mL; MIC (Proteus rettgeri NIH 96; [25]): 0.1 µg/mL; MIC [2, 26]: 1.6 µg/mL; MIC [3, 27]: 1.6 µg/mL; MIC [4, 28]: 1.6 µg/mL; MIC [5, 10]: 0.1 µg/mL; MIC [6, 20]: 0.8 µg/mL; MIC [7, 29]: 0.8 µg/mL; MIC [8, 30]: 3.1 µg/mL
CC1Cc2c(N3CCNCC3)c(Cl)cc3c(=O)c(C(=O)O)cn1c23 (centres unmarked) [Compound Y, 8-Chloro-9-(1-piperazinyl)-2-methyl-6-oxo-1,2-dihydro-6H--pyrrolo[3,2,1-ij]-quinoline-5-carboxylic acid] | – | – | – | – | – | – | – | – | – | – | – | – | – | – | – | – | ≤ 0.05 | 0.1 (≈ 0.288 µM) | – | – | MIC [1]: 0.2 µg/mL (≈ 0.575 µM); Minimum Inhibitory Concentration ([1]; inoculum 1 × 10^6 cells/ml): 0.2 µg/mL; MIC (Klebsiella pneumoniae; [19]): 0.2 µg/mL (≈ 0.575 µM); MIC (Klebsiella pneumoniae; [20]): 0.4 µg/mL (≈ 1.15 µM); MIC (Proteus rettgeri NIH 96; NIH96, read-out: Minimum Inhibitory Concentration, inoculum 1 × 10^6 cells/ml): 0.1 µg/mL (≈ 0.288 µM); MIC (Proteus rettgeri NIH 96; [25]): 0.2 µg/mL (≈ 0.575 µM); MIC ([2]; ATCC10145, read-out: Minimum Inhibitory Concentration, inoculum 1 × 10^6 cells/ml): 1.6 µg/mL (≈ 4.6 µM); MIC [2, 26]: 1.6 µg/mL (≈ 4.6 µM); MIC ([3]; E2, read-out: Minimum Inhibitory Concentration, inoculum 1 × 10^6 cells/ml): 3.1 µg/mL (≈ 8.91 µM); MIC [3, 27]: 3.1 µg/mL (≈ 8.91 µM); MIC ([4]; NCTC10490, read-out: Minimum Inhibitory Concentration, inoculum 1 × 10^6 cells/ml): 1.6 µg/mL (≈ 4.6 µM); MIC [4, 28]: 1.6 µg/mL (≈ 4.6 µM); MIC [5, 9]: ≤ 0.05 µg/mL; MIC [5, 10]: 0.1 µg/mL (≈ 0.288 µM); MIC [6, 19]: 0.4 µg/mL (≈ 1.15 µM); MIC [6, 20]: 0.8 µg/mL (≈ 2.3 µM); MIC ([7]; FDA209, read-out: Minimum Inhibitory Concentration, inoculum 1 × 10^6 cells/ml): 3.1 µg/mL (≈ 8.91 µM); MIC [7, 29]: 3.1 µg/mL (≈ 8.91 µM); MIC ([8]; IIDS23, read-out: Minimum Inhibitory Concentration, inoculum 1 × 10^6 cells/ml): 6.3 µg/mL (≈ 18.1 µM); MIC [8, 30]: 12.5 µg/mL (≈ 35.9 µM)
CC1Cc2c(N3CCN(C)CC3)c(Cl)cc3c(=O)c(C(=O)O)cn1c23 (centres unmarked) [Compound Z, 8-Chloro-9-(4-methyl-1-piperazinyl)-2-methyl-6-oxo-1,2-dihydro-6H--pyrrolo[3,2,1-ij]-quinoline-5-carboxylic acid] | 0.2 (≈ 0.553 µM) | 0.2 (≈ 0.553 µM) | 0.2 (≈ 0.553 µM) | 0.2 (≈ 0.553 µM) | 0.2 (≈ 0.553 µM) | 0.4 (≈ 1.11 µM) | 3.1 (≈ 8.57 µM) | 3.1 (≈ 8.57 µM) | 3.1 (≈ 8.57 µM) | 6.3 (≈ 17.4 µM) | 3.1 (≈ 8.57 µM) | 3.1 (≈ 8.57 µM) | 0.1 (≈ 0.276 µM) | 0.1 (≈ 0.276 µM) | 0.4 (≈ 1.11 µM) | 0.4 (≈ 1.11 µM) | 0.2 (≈ 0.553 µM) | 0.2 (≈ 0.553 µM) | 0.4 (≈ 1.11 µM) | 0.8 (≈ 2.21 µM) | MIC [8, 23]: 6.3 µg/mL (≈ 17.4 µM); MIC [8, 24]: 12.5 µg/mL (≈ 34.5 µM)
CC1Cc2c(N3CCN(C)CC3)c(F)cc3c(=O)c(C(=O)O)cn1c23 (centres unmarked) [a] | 0.1 (≈ 0.29 µM) | 0.1 (≈ 0.29 µM) | 0.2 (≈ 0.579 µM) | 0.2 (≈ 0.579 µM) | 0.1 (≈ 0.29 µM) | 0.2 (≈ 0.579 µM) | 1.6 (≈ 4.63 µM) | 1.6 (≈ 4.63 µM) | 1.6 (≈ 4.63 µM) | 1.6 (≈ 4.63 µM) | 1.6 (≈ 4.63 µM) | 1.6 (≈ 4.63 µM) | ≤ 0.05 | ≤ 0.05 | 0.2 (≈ 0.579 µM) | 0.2 (≈ 0.579 µM) | 0.1 (≈ 0.29 µM) | 0.1 (≈ 0.29 µM) | 0.4 (≈ 1.16 µM) | 0.8 (≈ 2.32 µM) | MIC [8, 23]: 3.1 µg/mL (≈ 8.98 µM); MIC [8, 24]: 6.3 µg/mL (≈ 18.2 µM)
